Holding throughout (assay): cell-based
The target in one assay is hNav1.7 (Homo sapiens, UniProt Q15858). Type of assay: cell-based. The note with it: PatchXpress, read-out: PX hNav1.7 Tonic IC50.
Assay [1] concerns the target T1, hNav1.4 (Homo sapiens, UniProt P35499). The note with it: for IC50: PatchXpress, read-out: PX hNav1.4 Tonic IC50.
The target of a further assay is hNav1.5 (Homo sapiens, UniProt Q14524). The note with it: for IC50: PatchXpress, read-out: PX hNav1.5 Tonic IC50.
Assay [2] addresses T1, hNav1.4. The note with it: ratio of IonWorks Quattro IC50 values. For orientation: In patch-clamp work, channel activity is measured electrically.
[3] abbreviates: * = at high concentrations compound would wash off slowly or not at all.

This passage reports IC50, Nav1.4/Nav1.7 and Nav1.5/Nav1.7 results from US9636418B2 (priority 2013, dated 2017).

Where two headings read alike, the source gives them in different places.

The IC50 is the concentration that gives 50% inhibition.

hNav1.5, sequence (Q14524 whole entry): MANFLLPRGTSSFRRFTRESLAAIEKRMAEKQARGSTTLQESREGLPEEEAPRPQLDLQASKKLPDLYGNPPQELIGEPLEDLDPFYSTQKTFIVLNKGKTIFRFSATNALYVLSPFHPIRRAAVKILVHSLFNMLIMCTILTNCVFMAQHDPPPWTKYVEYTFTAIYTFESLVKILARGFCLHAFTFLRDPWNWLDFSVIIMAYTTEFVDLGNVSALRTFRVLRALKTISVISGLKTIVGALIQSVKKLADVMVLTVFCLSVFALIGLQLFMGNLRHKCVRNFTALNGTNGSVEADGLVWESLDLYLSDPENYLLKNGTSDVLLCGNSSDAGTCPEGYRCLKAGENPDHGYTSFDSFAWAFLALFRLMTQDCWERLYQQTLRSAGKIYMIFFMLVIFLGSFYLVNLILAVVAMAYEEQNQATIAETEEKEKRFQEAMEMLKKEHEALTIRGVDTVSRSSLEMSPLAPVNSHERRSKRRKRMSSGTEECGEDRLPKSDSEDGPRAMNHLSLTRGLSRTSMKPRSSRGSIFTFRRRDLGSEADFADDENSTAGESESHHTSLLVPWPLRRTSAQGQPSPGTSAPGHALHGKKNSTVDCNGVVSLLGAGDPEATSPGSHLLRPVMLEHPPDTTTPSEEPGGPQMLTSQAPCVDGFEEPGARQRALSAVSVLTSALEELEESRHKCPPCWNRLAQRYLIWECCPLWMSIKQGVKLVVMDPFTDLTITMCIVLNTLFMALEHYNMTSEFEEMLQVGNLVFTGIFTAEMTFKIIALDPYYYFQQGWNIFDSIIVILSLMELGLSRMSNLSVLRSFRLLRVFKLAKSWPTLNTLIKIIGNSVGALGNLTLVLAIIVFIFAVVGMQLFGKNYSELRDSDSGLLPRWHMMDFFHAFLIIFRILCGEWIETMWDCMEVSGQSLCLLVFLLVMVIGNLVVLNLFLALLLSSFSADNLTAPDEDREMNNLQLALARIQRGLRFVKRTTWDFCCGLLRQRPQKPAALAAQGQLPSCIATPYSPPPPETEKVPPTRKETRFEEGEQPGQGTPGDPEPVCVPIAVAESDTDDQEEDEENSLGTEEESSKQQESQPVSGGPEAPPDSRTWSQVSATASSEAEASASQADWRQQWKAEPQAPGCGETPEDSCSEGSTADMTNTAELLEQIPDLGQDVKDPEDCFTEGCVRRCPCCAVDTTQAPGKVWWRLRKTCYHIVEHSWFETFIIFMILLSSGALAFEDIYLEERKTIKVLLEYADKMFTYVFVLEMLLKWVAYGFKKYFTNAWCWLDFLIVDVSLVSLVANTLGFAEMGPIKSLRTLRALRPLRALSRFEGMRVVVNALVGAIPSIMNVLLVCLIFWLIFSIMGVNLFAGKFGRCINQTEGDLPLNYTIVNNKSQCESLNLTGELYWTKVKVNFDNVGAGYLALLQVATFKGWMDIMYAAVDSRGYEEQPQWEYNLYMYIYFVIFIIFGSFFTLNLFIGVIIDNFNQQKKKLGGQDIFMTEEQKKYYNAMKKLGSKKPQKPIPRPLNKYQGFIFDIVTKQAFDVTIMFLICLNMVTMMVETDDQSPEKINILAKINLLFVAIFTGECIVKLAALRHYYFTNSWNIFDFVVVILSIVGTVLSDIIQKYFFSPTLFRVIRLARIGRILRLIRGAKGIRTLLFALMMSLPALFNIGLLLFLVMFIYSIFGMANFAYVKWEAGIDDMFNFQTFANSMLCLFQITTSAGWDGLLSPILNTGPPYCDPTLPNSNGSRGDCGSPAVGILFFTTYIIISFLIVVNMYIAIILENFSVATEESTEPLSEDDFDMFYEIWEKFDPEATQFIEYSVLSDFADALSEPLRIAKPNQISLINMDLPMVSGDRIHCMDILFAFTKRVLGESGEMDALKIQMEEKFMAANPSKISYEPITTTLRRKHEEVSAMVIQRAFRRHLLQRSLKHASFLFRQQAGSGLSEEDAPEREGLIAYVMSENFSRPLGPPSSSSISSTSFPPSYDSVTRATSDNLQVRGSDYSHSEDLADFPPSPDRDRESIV
hNav1.7, sequence (Q15858 whole entry): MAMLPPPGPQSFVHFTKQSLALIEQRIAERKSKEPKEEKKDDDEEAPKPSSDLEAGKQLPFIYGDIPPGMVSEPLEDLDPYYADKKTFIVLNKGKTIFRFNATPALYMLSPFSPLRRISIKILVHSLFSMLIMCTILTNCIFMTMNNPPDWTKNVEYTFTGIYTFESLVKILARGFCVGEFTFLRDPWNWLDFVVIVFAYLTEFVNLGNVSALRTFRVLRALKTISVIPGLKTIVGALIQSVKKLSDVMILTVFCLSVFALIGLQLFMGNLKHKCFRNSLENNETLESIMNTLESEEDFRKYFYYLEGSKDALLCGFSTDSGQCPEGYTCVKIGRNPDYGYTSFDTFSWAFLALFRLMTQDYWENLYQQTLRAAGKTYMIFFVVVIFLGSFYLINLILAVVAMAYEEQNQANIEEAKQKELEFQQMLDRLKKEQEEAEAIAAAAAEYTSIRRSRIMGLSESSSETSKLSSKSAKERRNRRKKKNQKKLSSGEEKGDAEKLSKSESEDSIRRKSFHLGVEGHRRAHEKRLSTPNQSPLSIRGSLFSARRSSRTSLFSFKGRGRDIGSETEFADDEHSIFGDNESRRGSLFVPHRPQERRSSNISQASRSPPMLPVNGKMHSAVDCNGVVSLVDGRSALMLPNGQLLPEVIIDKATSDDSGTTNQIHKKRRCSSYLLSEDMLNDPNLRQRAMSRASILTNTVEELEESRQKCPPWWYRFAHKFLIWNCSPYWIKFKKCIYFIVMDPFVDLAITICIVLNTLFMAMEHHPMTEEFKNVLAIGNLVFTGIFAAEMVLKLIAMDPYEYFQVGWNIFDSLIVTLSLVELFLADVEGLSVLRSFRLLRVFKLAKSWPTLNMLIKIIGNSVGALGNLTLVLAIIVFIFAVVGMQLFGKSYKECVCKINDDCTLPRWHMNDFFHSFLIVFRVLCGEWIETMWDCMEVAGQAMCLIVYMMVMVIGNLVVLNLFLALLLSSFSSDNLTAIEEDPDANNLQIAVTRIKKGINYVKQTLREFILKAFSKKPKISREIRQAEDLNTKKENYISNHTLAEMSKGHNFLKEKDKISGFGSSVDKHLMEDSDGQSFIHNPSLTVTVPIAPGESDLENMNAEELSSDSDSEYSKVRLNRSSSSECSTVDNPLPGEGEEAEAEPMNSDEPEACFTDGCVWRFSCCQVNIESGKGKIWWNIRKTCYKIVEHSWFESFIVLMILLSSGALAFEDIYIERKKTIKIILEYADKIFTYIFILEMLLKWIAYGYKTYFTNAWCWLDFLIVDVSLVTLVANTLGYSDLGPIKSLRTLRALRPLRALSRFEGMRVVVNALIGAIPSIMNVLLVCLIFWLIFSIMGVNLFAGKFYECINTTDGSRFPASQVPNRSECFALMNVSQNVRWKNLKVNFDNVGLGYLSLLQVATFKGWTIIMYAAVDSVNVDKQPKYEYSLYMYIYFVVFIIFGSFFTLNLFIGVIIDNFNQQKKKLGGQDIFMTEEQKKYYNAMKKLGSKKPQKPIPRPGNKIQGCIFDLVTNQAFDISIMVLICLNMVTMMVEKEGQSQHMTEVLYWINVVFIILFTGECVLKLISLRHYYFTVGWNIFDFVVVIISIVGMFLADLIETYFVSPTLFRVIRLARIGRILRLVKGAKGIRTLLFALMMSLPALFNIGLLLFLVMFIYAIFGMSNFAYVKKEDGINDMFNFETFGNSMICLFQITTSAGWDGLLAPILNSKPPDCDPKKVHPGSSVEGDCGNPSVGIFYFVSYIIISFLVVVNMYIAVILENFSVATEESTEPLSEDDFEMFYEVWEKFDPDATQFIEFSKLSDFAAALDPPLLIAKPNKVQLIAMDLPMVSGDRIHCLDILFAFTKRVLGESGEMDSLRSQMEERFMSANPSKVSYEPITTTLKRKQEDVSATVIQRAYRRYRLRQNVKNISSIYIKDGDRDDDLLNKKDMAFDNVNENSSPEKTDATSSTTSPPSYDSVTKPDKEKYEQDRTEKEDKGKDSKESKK

Turning to `CC[C@H](C)[C@H](NC(=O)[C@@H](NC(=O)[C@H](CCCCN)NC(=O)[C@H](CCCNC(=N)N)NC(=O)[C@@H]1CSSC[C@@H]2NC(=O)[C@H](C)NC(=O)[C@H](CCCNC(=N)N)NC(=O)[C@H](CCCCN)NC(=O)[C@H](CO)NC(=O)[C@H](CC(=O)O)NC(=O)[C@@H]3CSSC[C@H](NC(=O)[C@H](C)NC(=O)[C@H](CC(C)C)NC(=O)CNC(=O)[C@H](CCC(=O)O)NC(=O)[C@H](CSSC[C@H](NC(=O)[C@@H](N)Cc4ccc(O)cc4)C(=O)N[C@@H](CCC(N)=O)C(=O)N[C@@H](CCCCN)C(=O)N[C@@H](Cc4c[nH]c5ccccc45)C(=O)N[C@@H](CCSC)C(=O)N[C@@H](Cc4c[nH]c5ccccc45)C(=O)N[C@@H]([C@@H](C)O)C(=O)N3)NC2=O)C(=O)N[C@@H](CCCCN)C(=O)N[C@@H](CC(C)C)C(=O)N[C@@H](Cc2c[nH]c3ccccc23)C(=O)N1)[C@@H](C)CC)C(N)=O` [compound 17], the half-inhibitory concentration (IC50) is 12 nM on hNav1.7 (setting [3]), 100 nM on hNav1.4 [1] (setting [3]) and 2750 nM at hNav1.5 (setting [3]). For the same molecule, the Nav1.4/Nav1.7 on hNav1.4 [1] (ratio of PX IC50 values) is listed as 8.

`CC[C@H](C)[C@H](NC(=O)[C@@H](NC(=O)[C@H](CCCCN)NC(=O)[C@H](CCCNC(=N)N)NC(=O)[C@@H]1CSSC[C@@H]2NC(=O)[C@H](C)NC(=O)[C@H](CCCNC(=N)N)NC(=O)[C@H](CCCCN)NC(=O)[C@H](CO)NC(=O)[C@H](CC(=O)O)NC(=O)[C@@H]3CSSC[C@H](NC(=O)[C@H](CCCNC(=N)N)NC(=O)[C@H](CC(C)C)NC(=O)CNC(=O)[C@H](CCC(=O)O)NC(=O)[C@H](CSSC[C@H](NC(=O)[C@@H](N)Cc4ccc(O)cc4)C(=O)N[C@@H](CCC(N)=O)C(=O)N[C@@H](CCCCN)C(=O)N[C@@H](Cc4c[nH]c5ccccc45)C(=O)N[C@@H](CCSC)C(=O)N[C@@H](Cc4cccc5ccccc45)C(=O)N[C@@H]([C@@H](C)O)C(=O)N3)NC2=O)C(=O)N[C@@H](CCCCN)C(=O)N[C@@H](CC(C)C)C(=O)N[C@@H](Cc2c[nH]c3ccccc23)C(=O)N1)[C@@H](C)CC)C(N)=O` [compound 30]: the IC50 came out at 0.4 nM at hNav1.7 (setting [3]), 0.9 nM at hNav1.4 [1] (setting [3]) and 1420 nM at hNav1.5 (setting [3]). The Nav1.4/Nav1.7 at hNav1.4 [1] (ratio of PX IC50 values) was found to be 2.

In the case of `CC[C@H](C)[C@H](NC(=O)[C@@H](NC(=O)[C@H](CCCCN)NC(=O)[C@H](CCCNC(=N)N)NC(=O)[C@@H]1CSSC[C@@H]2NC(=O)[C@H](C)NC(=O)[C@H](CCCNC(=N)N)NC(=O)[C@H](CCCCN)NC(=O)[C@H](CO)NC(=O)[C@H](CC(=O)O)NC(=O)[C@@H]3CSSC[C@H](NC(=O)[C@H](CCCNC(=N)N)NC(=O)[C@H](CC(C)C)NC(=O)CNC(=O)[C@H](CCC(=O)O)NC(=O)[C@H](CSSC[C@H](NC(=O)[C@@H](N)CCC(=O)O)C(=O)N[C@@H](CCC(N)=O)C(=O)N[C@@H](CCCCN)C(=O)N[C@@H](Cc4c[nH]c5ccccc45)C(=O)N[C@@H](CCSC)C(=O)N[C@@H](Cc4c[nH]c5ccccc45)C(=O)N[C@@H]([C@@H](C)O)C(=O)N3)NC2=O)C(=O)N[C@@H](CCCCN)C(=O)N[C@@H](CC(C)C)C(=O)N[C@@H](Cc2c[nH]c3ccccc23)C(=O)N1)[C@@H](C)CC)C(N)=O` [compound 49], the IC50 on hNav1.7 (setting [3]) was 0.3 nM; on hNav1.4 [1] (setting [3]) it was 8 nM; at hNav1.5 (setting [3]) it was 6440 nM. Moreover, the Nav1.4/Nav1.7 at hNav1.4 [1] (ratio of PX IC50 values) amounted to 27.

Turning to `CC[C@H](C)[C@H](NC(=O)[C@H](CCC(=O)O)NC(=O)[C@H](CCCCN)NC(=O)[C@H](CCCNC(=N)N)NC(=O)[C@@H]1CSSC[C@@H]2NC(=O)[C@H](C)NC(=O)[C@H](CCCNC(=N)N)NC(=O)[C@H](CCCCN)NC(=O)[C@H](CO)NC(=O)[C@H](CC(=O)O)NC(=O)[C@@H]3CSSC[C@H](NC(=O)[C@H](CCCNC(=N)N)NC(=O)[C@H](CC(C)C)NC(=O)CNC(=O)[C@H](CCC(=O)O)NC(=O)[C@H](CSSC[C@H](NC(=O)[C@@H](N)Cc4ccc(O)cc4)C(=O)N[C@@H](CCC(N)=O)C(=O)N[C@@H](CCCCN)C(=O)N[C@@H](Cc4c[nH]c5ccccc45)C(=O)N[C@@H](CCSC)C(=O)N[C@@H](Cc4c[nH]c5ccccc45)C(=O)N[C@@H]([C@@H](C)O)C(=O)N3)NC2=O)C(=O)N[C@@H](CCCCN)C(=O)N[C@@H](CC(C)C)C(=O)N[C@@H](Cc2c[nH]c3ccccc23)C(=O)N1)C(N)=O` [compound 69], the IC50 on hNav1.7 (setting [3]) amounted to 1 nM; on hNav1.4 [1] (setting [3]), 300 nM; at hNav1.5 (setting [3]), 8800 nM. Also, the Nav1.4/Nav1.7 at hNav1.4 [1] (ratio of PX IC50 values) was found to be 300. At hNav1.5 (ratio of PX IC50 values), the Nav1.5/Nav1.7 is listed as 8800.

In the case of `CCCC[C@@H]1NC(=O)[C@H](Cc2c[nH]c3ccccc23)NC(=O)[C@H](CCCCN)NC(=O)[C@H](CCC(N)=O)NC(=O)[C@@H](NC(=O)[C@@H](N)Cc2ccc(O)cc2)CSSC[C@@H]2NC(=O)[C@@H]3CSSC[C@@H](C(=O)N[C@@H](CCCNC(=N)N)C(=O)N[C@@H](CCCCN)C(=O)N[C@H](C(=O)N[C@H](C(N)=O)[C@@H](C)CC)[C@@H](C)CC)NC(=O)[C@H](Cc4c[nH]c5ccccc45)NC(=O)[C@H](CC(C)C)NC(=O)[C@H](CCCCN)NC(=O)[C@H](CSSC[C@H](NC(=O)[C@H]([C@@H](C)O)NC(=O)[C@H](Cc4c[nH]c5ccccc45)NC1=O)C(=O)N[C@@H](CC(=O)O)C(=O)N[C@@H](Cc1cn(CCCOCCOCCOCCOCCOCCOCCOCCOCCOCCOCCN)nn1)C(=O)N[C@@H](CCCCN)C(=O)N[C@@H](CCCNC(=N)N)C(=O)N[C@@H](C)C(=O)N3)NC(=O)[C@H](CCCNC(=N)N)NC(=O)[C@H](CC(C)C)NC(=O)CNC(=O)[C@H](CCC(=O)O)NC2=O` [compound 256], the Nav1.4/Nav1.7 at hNav1.4 [1] (ratio of PX IC50 values) is 3; on hNav1.4 [2], 4. The Nav1.5/Nav1.7 at hNav1.5 (ratio of PX IC50 values) was 200.

As for `C#CC[C@H](N)C(=O)N[C@@H](Cc1ccc(O)cc1)C(=O)N[C@H]1CSSC[C@@H]2NC(=O)[C@@H]3CSSC[C@@H](C(=O)N[C@@H](CCCNC(=N)N)C(=O)N[C@@H](CCCCN)C(=O)N[C@H](C(=O)N[C@H](C(N)=O)[C@@H](C)CC)[C@@H](C)CC)NC(=O)[C@H](Cc4c[nH]c5ccccc45)NC(=O)[C@H](CC(C)C)NC(=O)[C@H](CCCCN)NC(=O)[C@H](CSSC[C@H](NC(=O)[C@H]([C@@H](C)O)NC(=O)[C@H](Cc4c[nH]c5ccccc45)NC(=O)[C@H](CCCC)NC(=O)[C@H](Cc4c[nH]c5ccccc45)NC(=O)[C@H](CCCCN)NC(=O)[C@H](CCC(N)=O)NC1=O)C(=O)N[C@@H](CC(=O)O)C(=O)N[C@@H](CO)C(=O)N[C@@H](CCCCN)C(=O)N[C@@H](CCCNC(=N)N)C(=O)N[C@@H](C)C(=O)N3)NC(=O)[C@H](CCC(=O)O)NC(=O)[C@H](CC(C)C)NC(=O)CNC(=O)[C@H](CCC(=O)O)NC2=O` [compound 297], the results for the IC50 on hNav1.7 (tonic block), on hNav1.4 [1] (tonic block) and at hNav1.5 (tonic block) were 1.87 nM, 804 nM and 1200 nM, respectively.

Consider `C#CC[C@H](N)C(=O)N[C@@H](Cc1ccc(O)cc1)C(=O)N[C@H]1CSSC[C@@H]2NC(=O)[C@@H]3CSSC[C@@H](C(=O)N[C@@H](CCCNC(=N)N)C(=O)N[C@@H](CCCCN)C(=O)N[C@H](C(=O)N[C@@H](Cc4c[nH]c5ccccc45)C(N)=O)[C@@H](C)CC)NC(=O)[C@H](Cc4c[nH]c5ccccc45)NC(=O)[C@H](CC(C)C)NC(=O)[C@H](CCCCN)NC(=O)[C@H](CSSC[C@H](NC(=O)[C@H]([C@@H](C)O)NC(=O)[C@H](Cc4c[nH]c5ccccc45)NC(=O)[C@H](Cc4ccccc4)NC(=O)[C@H](Cc4c[nH]c5ccccc45)NC(=O)[C@H](CCCCN)NC(=O)[C@H](CCC(N)=O)NC1=O)C(=O)N[C@@H](CC(=O)O)C(=O)N[C@@H](CO)C(=O)N[C@@H](CCCCN)C(=O)N[C@@H](CCCNC(=N)N)C(=O)N[C@@H](C)C(=O)N3)NC(=O)[C@H](CCC(=O)O)NC(=O)[C@H](CC(C)C)NC(=O)CNC(=O)[C@H](CCC(=O)O)NC2=O` [compound 298], for which the IC50 is 15 nM on hNav1.7 (tonic block), 661 nM on hNav1.4 [1] (tonic block) and 780 nM on hNav1.5 (tonic block). Moreover, the Nav1.4/Nav1.7 on hNav1.4 [1] (ratio of PX tonic IC50 values) is 44. At hNav1.5 (ratio of PX tonic IC50 values), the Nav1.5/Nav1.7 is given as 52.

`C#CC[C@H](N)C(=O)N[C@@H](Cc1ccc(O)cc1)C(=O)N[C@H]1CSSC[C@@H]2NC(=O)[C@@H]3CSSC[C@@H](C(=O)N[C@@H](CCCNC(=N)N)C(=O)N[C@@H](CCCCN)C(=O)N[C@H](C(=O)N[C@@H](Cc4c[nH]c5ccccc45)C(N)=O)[C@@H](C)CC)NC(=O)[C@H](Cc4c[nH]c5ccccc45)NC(=O)[C@H](CC(C)C)NC(=O)[C@H](CCCCN)NC(=O)[C@H](CSSC[C@H](NC(=O)[C@H]([C@@H](C)O)NC(=O)[C@H](Cc4c[nH]c5ccccc45)NC(=O)[C@H](CC(C)C)NC(=O)[C@H](Cc4c[nH]c5ccccc45)NC(=O)[C@H](CCCCN)NC(=O)[C@H](CCC(N)=O)NC1=O)C(=O)N[C@@H](CC(=O)O)C(=O)N[C@@H](CO)C(=O)N[C@@H](CCCCN)C(=O)N[C@@H](CCCNC(=N)N)C(=O)N[C@@H](C)C(=O)N3)NC(=O)[C@H](CCC(=O)O)NC(=O)[C@H](CC(C)C)NC(=O)CNC(=O)[C@H](CCC(=O)O)NC2=O` [compound 299]: the figures for the 50% inhibitory concentration (IC50) on hNav1.7 (tonic block), at hNav1.4 [1] (tonic block) and at hNav1.5 (tonic block) were 0.571 nM, 1180 nM and 1330 nM, respectively.

As for `C#CC[C@H](N)C(=O)N[C@@H](Cc1ccc(O)cc1)C(=O)N[C@H]1CSSC[C@@H]2NC(=O)[C@@H]3CSSC[C@@H](C(=O)N[C@@H](CCCNC(=N)N)C(=O)N[C@@H](CCCCN)C(=O)N[C@H](C(=O)N[C@@H](Cc4c[nH]c5ccccc45)C(N)=O)[C@@H](C)CC)NC(=O)[C@H](Cc4c[nH]c5ccccc45)NC(=O)[C@H](CC(C)C)NC(=O)[C@H](CCCCN)NC(=O)[C@H](CSSC[C@H](NC(=O)[C@H]([C@@H](C)O)NC(=O)[C@H](Cc4c[nH]c5ccccc45)NC(=O)[C@H](CCC)NC(=O)[C@H](Cc4c[nH]c5ccccc45)NC(=O)[C@H](CCCCN)NC(=O)[C@H](CCC(N)=O)NC1=O)C(=O)N[C@@H](CC(=O)O)C(=O)N[C@@H](CO)C(=O)N[C@@H](CCCCN)C(=O)N[C@@H](CCCNC(=N)N)C(=O)N[C@@H](C)C(=O)N3)NC(=O)[C@H](CCC(=O)O)NC(=O)[C@H](CC(C)C)NC(=O)CNC(=O)[C@H](CCC(=O)O)NC2=O` [compound 300], the IC50 stood at 0.818 nM on hNav1.7 (tonic block), 967 nM at hNav1.4 [1] (tonic block) and 5300 nM at hNav1.5 (tonic block).
